Structures are written as SMILES. “Also recorded” adds a separate entry of the source.

Experimental findings from patent publication US11241417B2, “Compositions and methods for the treatment and prevention of neurological disorders” (Yumanity Therapeutics, Inc., priority 2018, dated 2022) are described below.

Holding throughout (assay type): cell-based
For assay [1], the system named is TDP-43-expressing yeast. The experiment in a line: Yeast TDP-43 model viability (resazurin-reduction endpoint). The conditions noted are these: 2-fold serial dilution applied for 24 hours. As for the experimental part:
(§1) (FIG. 1A) Structure of the Erg11 inhibitor and anti-fungal, fluconazole. […] A 2-fold serial dilution of fluconazole was applied to TDP-43-expressing yeast for 24 hours prior to analysis. (FIG. 1C) Wild-type yeast cultures were treated with fluconazole for eight hours prior to HPLC analysis for lanosterol and ergosterol. Data are expressed as the area under the curve (AUC) normalized to cell mass based on optical density of cultures at 600 nm.
The toxic gain of function features of TDP-43 can be faithfully recapitulated in the simple model organism, budding yeast, where the protein also localizes to stress granules. […] The yeast model thus provides a robust cell-based screening platform for small molecules capable of ameliorating toxicity. To validate compounds from such phenotypic screens, it is imperative to test compounds in a mammalian neuronal context. In an effort to develop TDP-43-related mammalian models of neuron loss that occurs in ALS and FTD, primary cultures of rat cortical neurons were transfected with human wild type or Q331K mutant TDP-43. These cells were compared to cells which received an empty expression vector control. […] In the experiments described in this example, this model system is used to interrogate new therapeutic approaches to ameliorate TDP-43 toxicity.
Fluconazole is an antifungal known to inhibit Erg11, the yeast lanosterol 14-alpha demethylase (FIG. 1B). […]
For orientation: The colour change of resazurin is a common sign of viable cells or microbes.

Assay [2] concerns Erg11. The assay can be described thus: HPLC analysis for lanosterol and ergosterol in fluconazole-treated wild-type yeast cultures. The conditions noted are these: wild-type yeast cultures treated for eight hours, normalized to optical density at 600 nm. As for the experimental part: as §1
Fluconazole is an antifungal known to inhibit Erg11, the yeast lanosterol 14-alpha demethylase (FIG. 1B). […] CYP51A1 has also been known as lanosterol 14-alpha demethylase, which describes its function in removing the 14-alpha-methyl group from lanosterol to generate 4,4-dimethylcholesta-8(9),14,24-trien-3β-ol, which is a critical step in the cholesterol biosynthetic pathway.

The test system of assay [3] is primary rat cortical neurons transfected with Q331K Mutant TDP-43. The assay can be described thus: Survival of primary rat cortical neurons transfected with Q331K mutant TDP-43. The conditions noted are these: rat primary cortical neurons co-transfected with RFP and Q331K mutant TDP-43; titration of compound; cox regression. As for the experimental part: (§2) Rat primary cortical neurons were co-transfected with a red fluorescent protein (RFP) as a morphological marker and either control (empty vector) or Q331K mutant TDP-43 expression plasmids and treated with vehicle (DMSO) or a titration of compound (3). (FIG. 4A) Risk of neuron death plots. The lifetime of each neuron was determined by either loss of RFP signal or morphological indicators of death such as loss of neurites and cell blebbing and used to generate cumulative hazard plots of risk of death over time (hrs) post-transfection. (FIG. 4B) Forest plots. Hazard ratios for each treatment group (relative to TDP-43 DMSO group) were determined by cox regression analysis and used to generate forest plots. […] P, p-value.
The toxic gain of function features of TDP-43 can be faithfully recapitulated in the simple model organism, budding yeast, where the protein also localizes to stress granules. […] The yeast model thus provides a robust cell-based screening platform for small molecules capable of ameliorating toxicity. To validate compounds from such phenotypic screens, it is imperative to test compounds in a mammalian neuronal context. In an effort to develop TDP-43-related mammalian models of neuron loss that occurs in ALS and FTD, primary cultures of rat cortical neurons were transfected with human wild type or Q331K mutant TDP-43. […]

Assay [4] has as its system primary rat cortical neurons transfected with wild-type TDP-43. The experiment in a line: Survival of primary rat cortical neurons transfected with wild-type TDP-43. The conditions noted are these: rat primary cortical neurons co-transfected with RFP and wild-type human TDP-43; titration of compound; cox regression. As to the method:
as §2, with “wild-type” for “Q331K mutant”, “3A)” for “4A)”, “3B)” for “4B)”
Rat primary cortical neurons were co-transfected with a red fluorescent protein (RFP) as a morphological marker and either control (empty vector) or wild type TDP-43 expression plasmids and treated with vehicle (DMSO) or a titration of compound (4). […] The lifetime of each neuron was determined by either loss of RFP signal or morphological indicators of death such as loss of neurites and cell blebbing and used to generate cumulative hazard plots of risk of death over time (hrs) post-transfection. […] Hazard ratios for each treatment group (relative to TDP-43 DMSO group) were determined by cox regression analysis and used to generate forest plots. […]

For the compound `OC(Cn1cncn1)(Cn1cncn1)c1ccc(F)cc1F` [Fluconazole], the “viability of TDP-43-expressing yeast” value in assay [1] is recorded as “restored viability; also recorded: rescues viability”. Besides, in assay [2], the “ergosterol (AUC normalized to cell mass)” value is “reduces ergosterol” and the “lanosterol (AUC normalized to cell mass)” value is recorded as “increase in the Erg11 substrate, lanosterol”.

Regarding `CCCN(CCc1ccc(Cl)c(Cl)c1)CC(O)c1cccnc1` (stereo not drawn) [compound (3)], the “neuron survival (risk of neuron death, hazard ratio relative to TDP-43 DMSO group)” value in assay [3] is given as “promotes survival”; in assay [4] it was “reduction in survival was partially alleviated; also recorded: promotes survival”.

`O=C(N[C@@H](Cc1ccc(F)cc1)C(=O)N1CCC(O)CC1)c1cc2cc(Cl)ccc2[nH]1` [compound (4)]: the “neuron survival (risk of neuron death, hazard ratio relative to TDP-43 DMSO group)” value in assay [4] was “promotes survival”.
